Assay results taken from US6596064B2, “Biocidal-antifouling agents with low ecotoxicity index” (Luigi Stoppani S.p.A., priority 1999, dated 2003).

Experiments:
[1] = system: vegetation and micro-organisms (algae, bryozoas, acorn barnacles, polichaetas); assay: Example 3: antifouling paints on fibreglass panels immersed in seawater (dockyard of Genoa), comparison with MSB and Ciclor 98; settings: for 2^ Controls after a four month exposure: 0.8% in hard-matrix antifouling paint, +Cu2O per Table V (panels P1, P2), seawater, Genoa; for antifouling activity: 5% in paint, not associated with Cu2O (panels P4, P5, N), MBP and MTB more than Ciclor 98 (panel P7); for antifouling effectiveness: in association with Cu2O (panels P1, P2 and P8), synergistic action
Text: The compounds MBP and MTB were examined in different percentages, in hard-matrix antifouling formulations. The tests included the use of Ciclor 98, the use of the menadione sodium bisulphite (MSB) and a control panel (untreated), as is shown in Table V:
The prepared paints were applied to the fibreglass panels previously treated with a coating of epoxy paint and then immersed in seawater (dockyard of Genoa, Italy, 21/7/1999).
To determine the deposition or formation of vegetation and micro-organisms, both qualitatively and quantitatively, and to evaluate the antifouling activity of the samples, two different controls were carried out after two months (1^control) and after 4 months (2^control).

[2] = system: vegetation and micro-organisms (algae, serpulidae, acorn barnacles, bryozoas); assay: Example 1: antifouling paints on fibreglass panels immersed in seawater (dockyard of La Spezia); settings: 5% in hard-matrix antifouling paint, +Cu2O (panels P34, P35)
Text: The compounds MBP and MTB were examined in different percentages, singularly and/or in combination, in hard-matrix antifouling formulations containing or not containing copper, as reported in Table I:
The different paints were applied to the fibreglass panels previously treated with a coating of epoxy paint and then immersed in seawater (dockyard of La Spezia, Italy, 9/5/2000). To determine the deposition or formation of vegetation and micro-organisms, both qualitatively and quantitatively, and to evaluate the antifouling activity of the samples, two different controls were carried out after two months (1^control) and after six months (2^control).

[3] = system: vegetation and micro-organisms (algae, bryozoas, acorn barnacles, polichaetas); assay: Example 2: antifouling paints on fibreglass panels immersed in seawater (dockyard of Genoa), comparison with Ciclor 98; settings: for 2^ Controls after a four month exposure: 5% in hard-matrix antifouling paint, no copper (panels P2, P3, P4), seawater, Genoa; for antifouling activity compared to commercial antifouling product Ciclor 98: hard-matrix paints, no copper, seawater Genoa
Text: The compounds MBP and MTB were examined in different percentages, in hard-matrix antifouling formulations. The tests included the use of a common commercial antifouling product, Ciclor 98, which contains […] as active ingredient, largely used in the formulation of yatch paints, and a control panel (untreated, without biocide), as it is shown in Table III:
The prepared paints were applied to the fibreglass panels previously treated with a coating of epoxy paint and then immersed in seawater (dockyard of Genoa, Italy, 21/7/1999). To determine the deposition or formation of vegetation and micro-organisms, both qualitatively and quantitatively, and to evaluate the antifouling activity of the samples, two different controls were carried out after two months (1^control) and after 4 months (2^control).

Row | SMILES | 2^ Controls after a four month exposure [1] | antifouling activity [1] | antifouling effectiveness [1] | 2^ Control after a six month exposure [2] | 2^ Controls after a four month exposure [3] | antifouling activity compared to commercial antifouling product Ciclor 98 [3]
1 | C1CNCCN1.CC1(S(=O)(=O)O)CC(=O)c2ccccc2C1=O.CC1(S(=O)(=O)O)CC(=O)c2ccccc2C1=O (stereo not shown) [MBP, menadione (bis) piperazine bisulfite] | Clean | excellent antifouling activity | excellent antifouling effectiveness | A few green algae | Clean | increased antifouling activity
2 | CC1(S(=O)(=O)[O-])CC(=O)c2ccccc2C1=O.[Na+] (stereo not shown) [MSB, menadione sodium bisulphite, reference compound] |  | did not show any antifouling activity |  |  |  | 
3 | CC1(S(=O)(=O)O)CC(=O)c2ccccc2C1=O.Nc1nc(N)nc(N)n1 (stereo not shown) [MTB, menadione triaminotriazine bisulfite] | Clean | excellent antifouling activity | excellent antifouling effectiveness | A few green algae | Clean | increased antifouling activity
